The values below come from patent US5891882A, “Benzopyranopyrrole and benzopyranopyridine α-1 adenergic compounds” (priority 1997, dated 1999).

Molecules are shown by their SMILES. Counter-ions that a name gives are not always drawn.

For series [1], the target named is T1, α-1A adrenoreceptor (rat vas deferens) (Rattus norvegicus, UniProt P43140).
T1 construct: from tissue; host or cells: rat vas deferens
T1 sequence (P43140 1-466): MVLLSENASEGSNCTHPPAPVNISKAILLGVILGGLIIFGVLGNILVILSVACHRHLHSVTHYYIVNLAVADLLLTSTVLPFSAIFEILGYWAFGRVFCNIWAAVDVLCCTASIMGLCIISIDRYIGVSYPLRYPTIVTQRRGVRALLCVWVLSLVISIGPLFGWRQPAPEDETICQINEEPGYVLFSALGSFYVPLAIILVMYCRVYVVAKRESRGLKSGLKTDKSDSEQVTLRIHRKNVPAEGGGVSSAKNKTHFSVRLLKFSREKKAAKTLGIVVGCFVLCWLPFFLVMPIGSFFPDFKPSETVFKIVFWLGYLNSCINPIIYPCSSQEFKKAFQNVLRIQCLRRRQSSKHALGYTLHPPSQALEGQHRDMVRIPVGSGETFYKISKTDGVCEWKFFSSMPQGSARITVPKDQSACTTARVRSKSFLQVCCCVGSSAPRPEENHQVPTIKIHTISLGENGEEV
Nature of the series: Functional antagonism: inhibition of phenylephrine-induced contraction of rat vas deferens. The note with it: rat vas deferens, phenylephrine-induced contraction, Schild plot. Type of series: cell-based. The source says:
(§1) Functional assays indicative of pharmacologically defined α-1 adrenoreceptors were used to further characterize compounds. Inhibition of phenylephrine (PE)-induced contraction of canine prostate smooth muscle can be correlated with α-1A adrenoreceptor activation. […] For each of these models, agonist dose response curves were repeated against increasing concentrations of test agent to derive a Schild plot [log ([…]) against log (molarity of test agent)] to determine the pA2.

The target of series [2] is T2, α-1 Adrenoceptors (Rat Aorta) (Rattus norvegicus, UniProt P23944).
T2 construct: Rat Aorta; from tissue; host or cells: rat aorta
T2 sequence (P23944 1-561): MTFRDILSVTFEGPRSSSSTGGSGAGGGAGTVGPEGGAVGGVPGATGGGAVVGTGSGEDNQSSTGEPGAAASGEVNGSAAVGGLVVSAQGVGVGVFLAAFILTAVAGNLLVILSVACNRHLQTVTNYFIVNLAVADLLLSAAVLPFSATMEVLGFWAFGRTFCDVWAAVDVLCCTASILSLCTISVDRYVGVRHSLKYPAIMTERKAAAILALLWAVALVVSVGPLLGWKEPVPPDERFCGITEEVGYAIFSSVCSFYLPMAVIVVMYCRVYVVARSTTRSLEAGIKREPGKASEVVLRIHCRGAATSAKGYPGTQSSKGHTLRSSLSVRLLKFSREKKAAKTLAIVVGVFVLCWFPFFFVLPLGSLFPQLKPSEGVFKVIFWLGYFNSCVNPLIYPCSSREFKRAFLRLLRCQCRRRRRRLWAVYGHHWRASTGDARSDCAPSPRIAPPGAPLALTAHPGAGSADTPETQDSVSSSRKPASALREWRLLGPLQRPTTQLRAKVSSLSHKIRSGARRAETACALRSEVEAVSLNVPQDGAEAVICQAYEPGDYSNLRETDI
Nature of the series: Functional antagonism at α-1 adrenoceptors, rat aorta. The series is classed as cell-based. The conditions noted are these: read-out: In Vitro Characterization (pA2) Rat Aorta (converted). In a few lines: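 Phenylephrine dose-response curves for contraction were repeated against increasing test-agent concentrations. pA2 was derived by Schild plot [[…] vs log molarity of test agent].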

Series [3] has as its target T3, α-1B adrenoreceptor (rat spleen) (Rattus norvegicus, UniProt P15823).
T3 construct: from tissue; host or cells: rat spleen
T3 sequence (P15823 1-515): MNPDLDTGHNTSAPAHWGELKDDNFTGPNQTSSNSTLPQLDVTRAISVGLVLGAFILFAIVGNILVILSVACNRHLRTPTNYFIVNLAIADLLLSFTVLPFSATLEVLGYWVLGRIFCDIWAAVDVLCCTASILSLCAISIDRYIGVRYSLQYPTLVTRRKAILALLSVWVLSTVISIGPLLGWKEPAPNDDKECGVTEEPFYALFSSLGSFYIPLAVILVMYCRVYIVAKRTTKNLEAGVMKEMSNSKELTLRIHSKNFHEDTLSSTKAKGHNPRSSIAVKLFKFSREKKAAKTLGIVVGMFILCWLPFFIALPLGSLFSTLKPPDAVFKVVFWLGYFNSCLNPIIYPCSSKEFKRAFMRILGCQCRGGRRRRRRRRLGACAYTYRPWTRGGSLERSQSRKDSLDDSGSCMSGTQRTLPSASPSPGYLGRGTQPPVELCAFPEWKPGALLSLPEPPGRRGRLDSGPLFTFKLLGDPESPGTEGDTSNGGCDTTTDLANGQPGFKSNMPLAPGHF
The series is described as follows: Functional antagonism: inhibition of phenylephrine-induced contraction of rat spleen. The conditions noted are these: rat spleen, phenylephrine-induced contraction, Schild plot. Type of series: cell-based.
From the text: as §1

The test system of the next series is α-1 adrenoreceptor. The conditions noted are these: cited from earlier work.
For series [4] the following is noted: antihypertensive treatment; cited from earlier work.

As for `COc1cccc2c1[C@@H]1CN(CCCCn3c(=O)[nH]c4c(sc5ccncc54)c3=O)C[C@H]1CO2` [Example 41, 3-[4-((3aR,9bR)-trans-9-Methoxy-1,2,3,3a,4,9b-hexahydro-[1]-benzopyrano[3,4-c]pyrrol-2-yl)butyl]-pyrido[3',4':4,5]thieno[3,2-d]pyrimidine-2,4(1H,3H)-dione hydrochloride], the “In Vitro Characterization (pA2) Rat Vas” value in series [1] came out at 9.45. Besides, in series [2], the Kb was 0.017 nM.

On to `COc1cccc2c1[C@@H]1CN(CCCCn3c(=O)[nH]c4c(sc5cnccc54)c3=O)C[C@H]1CO2` [Example 42, hydrochloride], for which, in series [1], the “In Vitro Characterization (pA2) Rat Vas” value is listed as 9.59. In addition, the Kb in series [2] is 0.0389 nM.

As to `COc1cccc2c1[C@@H]1CN(CCCCn3c(=O)[nH]c4c(sc5nc(C)ccc54)c3=O)C[C@H]1CO2` [Example 45, 3-[4-((3aS,9bR)-trans-9-Methoxy-1,2,3,3a,4,9b-hexahydro-[1]-benzopyrano[3,4-c]pyrrol-2-yl)butyl]-7-methyl-pyrido[3',2':4,5]thieno[3,2-d]pyrimidine-2,4(1H,3H)-dione hydrochloride], in series [1], the “In Vitro Characterization (pA2) Rat Vas” value is 9.59. In series [2], the Kb was 0.209 nM.

Consider `COc1cccc2c1[C@@H]1CN(CCCCn3c(=O)[nH]c4c(sc5c(Cl)nccc54)c3=O)C[C@@H]1CO2` [Example 53, 3-[4-((3aR,9bR)-cis-9-Methoxy-1,2,3,3a,4,9b-hexahydro-[1]-benzopyrano[3,4-c]pyrrol-2-yl)butyl]-6-chloro-pyrido[4',3':4,5]thieno[3,2-d]pyrimidine-2,4(1H,3H)-dione], for which the “In Vitro Characterization (pA2) Rat Vas” value in series [1] is reported as 9.31. Besides, in series [3], the “In Vitro Characterization (pA2) Rat Spleen” value is recorded as 7.2. The Kb in series [2] is 1.07 nM.

For the compound `COc1cc2nc(N3CCN(C(=O)c4ccco4)CC3)nc(N)c2cc1OC` [Prazosin, prazosin], the “dose limiting side effects” value in the series on α-1 adrenoreceptor (BPH treatment) is “hypotension, dizziness, and muscle fatigue”. Also, the “urinary flow rates and subjective symptom scores” value in the series with α-1 adrenoreceptor (longer term studies, BPH) is “significant improvements in urinary flow rates and subjective symptom scores”. The “urinary incontinence in women” value in series [4] is “urinary incontinence developed in women”.
